Laboratory results taken from paper PMC11679033, “Assessing the Potential Synergistic/Antagonistic Effects of Citrinin and Cannabidiol on SH-SY5Y, HepG2, HEK293 Cell Lines, and Human Lymphocytes” (Toxins, 2024).

Tests used:
[1] = Lymphocyte proliferation / cytotoxicity (CBPI, RI); format: cell-based, human; settings: human, citrinin 7.50 µg/mL, CBD 3.15 µg/mL, bleomycin 1.25 µg/mL, deduced from RI
Description: (§1) On the same slides, parameters of cell proliferation, cytostasis and cytotoxicity were studied, according to recommendations by OECD 2023 [67]. For that purpose, the numbers of mono-, bi-, tri-, and quadrinuclear cells (i.e., M1, M2, M3, M4) were scored at 400× magnification using a light microscope (Leitz, Oberkochen, Germany). The total number of M1 to M4 cells counted per experimental group was 3000 (i.e., 6 × 500 cells).
(§2) Based on the scored ratios of M1 to M4 cells, the Cytokinesis-Block Proliferation Index (CBPI) was calculated, using the formula: CBPI = [(No. of mononucleated cells) + (2 × No. of binucleated cells) + (3 × No. of multinucleated cells)]/(Total number of cells).
(§3) To establish the relative number of cell cycles per cell during the period of exposure to cytoB in treated compared to control cultures, the Replication Index (RI) was also calculated according to the formula:RI = {[(<No. binucleated cells> + <2 × No. multinucleated cells>)/(Total number of cells in treated culture)]/[(<No. binucleated cells> + <2 × No. multinucleated cells>) […] (Total number of cells in control culture)]} × 100
(§4) Finally, from the obtained values of RI, the cytotoxicity estimate was deduced, as % Cytotoxicity = […].

[2] = system: human peripheral blood lymphocytes; assay: Lymphocyte proliferation / cytotoxicity (CBPI, RI); format: cell-based; settings: 24 h, citrinin 7.50 µg/mL, CBD 3.15 µg/mL, bleomycin 1.25 µg/mL; for Cytokinesis-Block Proliferation Index: 3000 cells scored; for Replication Index (%): relative to negative control
Description: as §1, §2, §3, §4

HepG2 cells = assay: MTS viability assay, HepG2; format: cell-based, human; settings: for lowest observed adverse effect level (LOAEL), approximate / cell viability at LOAEL concentrations: HepG2, 24 h; for cell viability at LOAEL concentrations: CBD 1 μM, CIT 30 μM, alone or combined
Method: (§5) Human neuroblastoma SH-SY5Y cells (ECACC 94030304), human hepatocyte carcinoma HepG2 (ECACC 85011430) and human embryonic kidney HEK293 (ECACC 85120602) used in the experiments were obtained from the European Collection of Authenticated Cell Cultures (ECACC) through Sigma-Aldrich (Steinheim, Germany). SH-SY5Y cells were grown in Dulbecco’s Modified Eagle’s Medium F12 containing 15% (v/v) fetal bovine serum (FBS), 2 mM glutamine, 1% (v/v) penicillin/streptomycin (PenStrep solution), and 1% (v/v) non-essential amino acids (NEAA solution). HEK293 and HepG2 cells were grown in EMEM medium (Sigma-Aldrich, Steinheim, Germany) supplemented with 10% (v/v) FBS, 2 mM glutamine, 1% (v/v) PenStrep and 1% (v/v) NEAA. All media and supplements were purchased from Sigma-Aldrich, Steinheim, Germany. Cells were cultured at 37 °C in a 5% CO2 atmosphere, the medium was changed every two days, and passage was carried out according to the manufacturer’s protocol.
(§6) MTS assay (CellTiter 96® AQueous One Solution Cell Proliferation Assay, Promega, Madison, WI, USA) was used to determine the viability of cells/cytotoxic properties of tested compounds by measuring cells’ mitochondrial succinate dehydrogenase activity. The procedure followed a previously described protocol. In brief, the cells were seeded in transparent 96-well plates at a density of 20,000 cells/well one day before the experiment and treated with tested compounds in concentrations: 0.01, 0.1, 0.5, 1, 2, 5, 10, 25, 50, 100 and 300 µM. Triton X-100 at a final concentration of 0.18% (v/v) (stock of 9% in water; Sigma-Aldrich, Steinheim, Germany) was used as a positive control. After 24 h, treatment with tested compounds and incubation with MTS reagent, the absorbance was read at 492 nm on an Infinite M200PRO (Tecan Group Ltd., Männedorf, Switzerland) plate reader. Data were taken from at least three independent experiments (each treatment performed in duplicate or triplicate) and expressed as percentages (mean ± standard error) of viable cells compared to control (untreated) cells. IC50 values were determined by a nonlinear fit equation predefined in Prism software 8 (GraphPad Software, San Diego, CA, USA).
(§7) The same method was used to evaluate a potential toxic synergistic effect on cells exposed to a combination of CBD and CIT at approximately LOAEL doses (lowest observed adverse effect level, 1 and 30 μM for SH-SY5Y and HepG2, and 2 and 0.05 μM for HEK293, respectively). There is no official recommendation for CBD oral use, but according to the available literature, we used a dose that corresponded to daily intake, which was 10 mg/kg/day (calculated on a person of 70 kg ~ 1 μM). These selected LOAEL concentrations were used for all other assays as well.

[3] = MTS viability assay, HepG2; format: cell-based, human; settings: human, HepG2 cells; HepG2, 24 h exposure, MTS; read-out: IC50 (cytotoxicity)
Method: as §5, §6, §7

Structure (SMILES)	cytotoxicity at 24 h [1]	Cytokinesis-Block Proliferation Index [2]	Replication Index (%) [2]	lowest observed adverse effect level (LOAEL), approximate (HepG2 cells)	cell viability at LOAEL concentrations (HepG2 cells)	IC50 at 24 h [3]	cytotoxicity fold higher than CIT (HepG2 cells; in both HepG2 and SH-SY5Y, 24 h)
CC1=C2C(=CO[C@H](C)[C@H]2C)C(O)=C(C(=O)O)C1=O [CIT, citrinin]	16.5%	1.83^↓nc, sc, cbd, &	83.46%	~30 µM	did not independently impact cell viability	59 ± 9 µM	–
C=C(C)[C@@H]1CCC(C)=C[C@H]1c1c(O)cc(CCCCC)cc1O [CBD, cannabidiol]	2.86%	1.96^↓nc, sc	97.14%	~ 1 μM	did not independently impact cell viability	40 ± 7 µM	1.5- to 4 fold
